Experimental data reported in ChEMBL document CHEMBL4145551, “Mitochondria-targeting indolizino[3,2-c]quinolines as novel class of photosensitizers for photodynamic anticancer activity” (Eur J Med Chem, 2018).
The source made the active and inactive calls. The calls are words filed in the database; no cut-off is given here.

How the values were obtained:
DNA [1] = experiment: Binding affinity to Escherichia coli pBR322 DNA assessed as increase in test compound fluorescence after 30 mins under blue LED light irradiation; format: nucleic-acid assay
HeLa [2] = experiment: Photocytotoxicity against human HeLa cells assessed as reduction in cell viability preincubated for 1 hr followed blue LED light irradiation for 10 mins and measured after 24 hrs by MTT assay; format: functional, cell-based
HeLa [3] = experiment: Photocytotoxicity against human HeLa cells assessed as increase in cleaved caspase-9 protein expression preincubated for 1 hr followed by blue LED light irradiation for 10 mins and measured after 18 hrs by Western blot analysis; format: functional, cell-based
HeLa [4] = experiment: Photocytotoxicity against human HeLa cells assessed as cell rounding at 5 uM preincubated for 1 hr followed by blue LED light irradiation for 10 to 30 mins and measured after 2.5 hrs by holotomographic method; format: functional, cell-based
MCF7 [5] = experiment: Photocytotoxicity against human MCF7 cells assessed as induction of mitochondrial membrane potential depolarization at 10 uM preincubated for 1 hr followed by blue LED light irradiation for 5 mins by TMRE staining based confocal microscopic method; format: functional, cell-based
DNA [6] = experiment: Induction of Escherichia coli pBR322 DNA cleavage irradiated with blue LED light after 30 mins by agarose gel electrophoresis method; format: nucleic-acid assay
HeLa [7] = experiment: Photocytotoxicity against human HeLa cells assessed as cell rounding at 20 uM preincubated for 1 hr followed by blue LED light irradiation for 10 mins and measured after 2.5 hrs by holotomographic method; format: functional, cell-based
DNA [8] = experiment: Induction of Escherichia coli pBR322 DNA cleavage at 20 uM irradiated with blue LED light after 30 mins in presence of H2O2 scavenger KI by agarose gel electrophoresis method; format: nucleic-acid assay
[9] = Drug uptake in human HeLa cell cytoplasm at 10 uM after 1 hr by mitotracker red staining based confocal laser scanning microscopic method; format: ADME, subcellular
DNA [10] = experiment: Induction of Escherichia coli pBR322 DNA cleavage at 20 uM after 30 mins under dark condition by agarose gel electrophoresis method; format: nucleic-acid assay; conditions: 0.5 h
HeLa [11] = experiment: Photocytotoxicity against human HeLa cells assessed as induction of mitochondrial damage by measuring mitochondrial swelling at 10 uM preincubated for 1 hr followed by 488 nanometer laser light irradiation up to 6 mins by mitotracker red staining based confocal laser scanning microscopic method; format: functional, cell-based
HeLa [12] = experiment: Photocytotoxicity against human HeLa cells assessed as cell shrinkage at 20 uM preincubated for 1 hr followed by blue LED light irradiation for 10 mins and measured after 2.5 hrs by holotomographic method; format: functional, cell-based
MCF7 [13] = experiment: Photocytotoxicity against human MCF7 cells assessed as reduction in cell viability preincubated for 1 hr followed blue LED light irradiation for 5 mins and measured after 24 hrs by MTT assay; format: functional, cell-based
HeLa [14] = experiment: Photocytotoxicity against human HeLa cells assessed as chromatin condensation up to 10 uM preincubated for 1 hr followed by blue LED light irradiation for 5 mins and measured after 13 hrs by Hoechst 33258 staining based fluorescence microscopic method; format: functional, cell-based
HeLa [15] = experiment: Photocytotoxicity against human HeLa cells assessed as plasma membrane blebbing at 20 uM preincubated for 1 hr followed by blue LED light irradiation for 10 mins and measured after 2.5 hrs by holotomographic method; format: functional, cell-based
HeLa [16] = experiment: Photocytotoxicity against human HeLa cells assessed as reduction in cell viability at 2 uM preincubated for 1 hr followed blue LED light irradiation for 5 mins and measured after 24 hrs in presence of singlet oxygen scavenger histidine by MTT assay; format: functional, cell-based

Activity (DNA [1]): Dose-dependent effect
Activity (DNA [6]): Dose-dependent effect
Activity (DNA [8]): inactive
Drug uptake [9]: Active
SMILES: Cc1cccn2c1cc1c3ccccc3nc(-c3ccco3)c12
Activity (HeLa [2]): Dose-dependent effect
IC50 (HeLa [2]; light or radiation study): 1120 nM
Activity (HeLa [3]): Dose-dependent effect
Activity (HeLa [4]): Active
Activity (MCF7 [5]): Active
Activity (HeLa [7]): Active
Activity (DNA [10]): Non-Toxic
Activity (HeLa [11]): Active
Activity (HeLa [12]): Active
Activity (MCF7 [13]): Dose-dependent effect
IC50 (MCF7 [13]; MCF7, light or radiation study): 2390 nM
Activity (HeLa [14]): Active
Activity (HeLa [15]): Active
Activity (HeLa [16]): inactive
